The values below come from article PMC8175350, “Drug repurposing screens identify chemical entities for the development of COVID-19 interventions” (Nature Communications, 2021).

A short description of data set [1]: Uninfected HeLa-ACE2 24 h live/dead cytotoxicity counter screen. Format: cell-based, human. Conditions: human, uninfected HeLa-ACE2 cells.
Data set [2] deals with HeLa-ACE2 cells. The data set is described as above. The note with it: for HeLa-ACE2 uninfected cytotoxicity Sinf Average: curve-fit effect at infinite concentration. Format: cell-based, human.
In data set [3] the test system is SARS-CoV-2. In words: microbe, parasite or virus in culture. Type of data set: cell-based. The note with it: for Emax: Severe acute respiratory syndrome coronavirus 2, Calu-3, 48 h; for EC50: read-out: Calu-3 CoV-2 EC50 GeoMean.
The nature of the next data set: in vitro. Conditions: human.
Data set [4] concerns SARS-CoV-2. As to the kind of experiment: microbe, parasite or virus in culture. The note with it: for Emax: Severe acute respiratory syndrome coronavirus 2, HeLa-ACE2, 24 h, curve-fit effect at infinite concentration, average, read-out: HeLa-ACE2 CoV-2 Sinf Average; for EC50: Severe acute respiratory syndrome coronavirus 2, HeLa-ACE2, read-out: HeLa-ACE2 CoV-2 EC50 GeoMean. Type of data set: cell-based.

In data set [5] the test system is HeLa-ACE2 cells. In words: cells. Conditions: Homo sapiens; for Emax: HeLa-ACE2, 24 h, read-out: HeLa-ACE2 cell count Sinf Average.
Data set [6] deals with Calu-3 cells. In words: Uninfected Calu-3 48 h Cell-Titer Glo cytotoxicity counter screen. The note with it: for Calu-3 uninfected cytotoxicity Sinf Average: curve-fit effect at infinite concentration. In general terms: Counterscreens check selectivity or assay interference.
For data set [7], the system named is Calu-3 cells. In words: cells. The note with it: Homo sapiens; for Emax: Calu-3, 48 h.
For data set [8], the system named is Calu-3 cells.
The mark [9] stands for this setting: uninfected cells, Fig. 2b group, read-out: HeLa-ACE2 CC50.
Setting [10] is: unrounded geometric mean, read-out: HeLa-ACE2 uninfected cytotoxicity CC50 GeoMean.
[11] abbreviates: curve-fit effect at infinite concentration, average, read-out: Calu-3 CoV-2 Sinf Average.
Setting [12] is: Severe acute respiratory syndrome coronavirus 2, Calu-3, unrounded geometric mean.
Where [13] appears, read: Calu-3 uninfected cytotoxicity CC50 GeoMean, unrounded geometric mean.
Setting [14] is: HeLa-ACE2, read-out: HeLa-ACE2 cell count EC50 GeoMean, unrounded geometric mean.
[15] abbreviates: read-out: Calu-3 cell count Sinf Average.
Setting [16] is: Calu-3, read-out: Calu-3 cell count EC50 GeoMean, unrounded geometric mean.
The mark [17] stands for this setting: geometric mean of replicates, read-out: HeLa-ACE2 uninfected cytotoxicity CC50 GeoMean.
The mark [18] stands for this setting: Sinf average of the curves, read-out: Calu-3 CoV-2 Sinf Average (%).
Setting [19] is: Severe acute respiratory syndrome coronavirus 2, Calu-3, geometric mean of replicates.
Where [20] appears, read: HeLa-ACE2, read-out: HeLa-ACE2 cell count EC50 GeoMean (µM), geometric mean of replicates.
[21] abbreviates: read-out: Calu-3 cell count Sinf Average (%).
The mark [22] stands for this setting: Calu-3, read-out: Calu-3 cell count EC50 GeoMean (µM), geometric mean of replicates.

Where two headings read alike, the source gives them in different places.

What is called CC50 is the concentration giving 50% cytotoxicity. As a reminder, the EC50 is the concentration that produces a half-maximal response. Take `CC(=O)O[C@H]1C[C@H](O[C@H]2[C@@H](O)C[C@H](O[C@H]3[C@@H](O)C[C@H](O[C@H]4CC[C@@]5(C)[C@H](CC[C@@H]6[C@@H]5C[C@@H](O)[C@]5(C)[C@@H](C7=CC(=O)OC7)CC[C@]65O)C4)O[C@@H]3C)O[C@@H]2C)O[C@H](C)[C@H]1O[C@@H]1O[C@H](CO)[C@@H](O)[C@H](O)[C@H]1O` [Lanatoside C]: the CC50 at 24 h was ≤ 3 µM in data set [1] (setting [9]) and 1.35 µM in data set [1] (setting [10]). Moreover, the “HeLa-ACE2 uninfected cytotoxicity Sinf Average” value in the data set on HeLa-ACE2 cells [2] is recorded as -101%. Further, the Emax in the data set with SARS-CoV-2 [3] (setting [11]) was 86%; in the data set with SARS-CoV-2 [4], 97%; in the data set on HeLa-ACE2 cells [5], 96%; with Calu-3 cells [7] (setting [15]) it was -33%. In addition, the EC50 in the data set with SARS-CoV-2 [3] (setting [12]) is 0.194 µM; in the data set with SARS-CoV-2 [4] (unrounded geometric mean) it was 0.206 µM; in the data set with HeLa-ACE2 cells [5] (setting [14]), 0.379 µM; in the data set on Calu-3 cells [7] (setting [16]), > 9.98 µM. Also, the CC50 in the data set “in vitro” (setting [13]) is > 6.21 µM. Also, in the data set with Calu-3 cells [6], the “Calu-3 uninfected cytotoxicity Sinf Average” value is -28%.
In the case of `CCCCCCCCCCCCCC(=O)O[C@@H]1[C@@H](C)[C@@]2(O)[C@@H](C=C(CO)C[C@]3(O)C(=O)C(C)=C[C@@H]23)[C@@H]2C(C)(C)[C@]12OC(C)=O` [Phorbol 12-myristate 13-acetate], the CC50 at 24 h in data set [1] (setting [9]) is ≤ 3 µM; in data set [1] (setting [10]) it was > 0.201 µM. Also, in the data set with HeLa-ACE2 cells [2], the “HeLa-ACE2 uninfected cytotoxicity Sinf Average” value is on record as -58%. Besides, the Emax in the data set with SARS-CoV-2 [3] (setting [11]) amounted to 59%; in the data set on SARS-CoV-2 [4] it was 40%; with Calu-3 cells [7] (setting [15]) it was 100%. Also, the EC50 in the data set with SARS-CoV-2 [3] (setting [12]) is 0.0162 µM; with HeLa-ACE2 cells [5] (setting [14]) it was > 9.59 µM; in the data set on Calu-3 cells [7] (setting [16]), > 9.98 µM. This compound also yielded a CC50 in “in vitro” (setting [13]) of 22.5 µM. Besides, the “Calu-3 uninfected cytotoxicity Sinf Average” value in the data set on Calu-3 cells [6] was -100%.
With `COC(=O)[C@@]12OC[C@]34[C@H]([C@@H](O)[C@@H]1O)[C@@]1(C)CC(=O)C(O)=C(C)[C@@H]1C[C@H]3OC(=O)[C@H](OC(=O)/C=C(\C)C(C)C)[C@@H]24` [Bruceantin], the values for the CC50 at 24 h in data set [1] (setting [9]) and in data set [1] (setting [10]) were ≤ 3 µM and < 0.117 µM, respectively. Besides, the “HeLa-ACE2 uninfected cytotoxicity Sinf Average” value in the data set on HeLa-ACE2 cells [2] is recorded as -100%. The Emax in the data set on SARS-CoV-2 [3] (setting [11]) is 99%; in the data set on SARS-CoV-2 [4] it was 98%; with HeLa-ACE2 cells [5], 99%; in the data set on Calu-3 cells [7] (setting [15]), -100%. The EC50 was 0.0194 µM with SARS-CoV-2 [3] (setting [12]), 0.00578 µM in the data set with SARS-CoV-2 [4] (unrounded geometric mean), 0.0968 µM in the data set with HeLa-ACE2 cells [5] (setting [14]) and > 6.92 µM with Calu-3 cells [7] (setting [16]). Moreover, in the data set “in vitro” (setting [13]), the CC50 is 0.973 µM. The “Calu-3 uninfected cytotoxicity Sinf Average” value in the data set on Calu-3 cells [6] is -53%.
As to `O=c1[nH]c2ccc(C(F)(F)F)cc2c(-c2cc(Cl)ccc2O)c1CCO` [BMS-223131], the CC50 at 24 h in data set [1] (setting [17]) came out at 21.4 µM. Also, the “HeLa-ACE2 uninfected cytotoxicity Sinf Average (%)” value in the data set with HeLa-ACE2 cells [2] (Sinf average of the curves) was -100%. Moreover, the Emax with SARS-CoV-2 [3] (setting [18]) and with Calu-3 cells [7] (setting [21]) was 100% throughout. The EC50 in the data set on SARS-CoV-2 [3] (setting [19]) was 5.14 µM; in the data set with SARS-CoV-2 [4] (geometric mean of replicates), > 9.59 µM; in the data set on HeLa-ACE2 cells [5] (setting [20]), > 9.59 µM; in the data set with Calu-3 cells [7] (setting [22]), > 9.98 µM. In “in vitro” (Calu-3 uninfected cytotoxicity CC50 GeoMean (µM)), the CC50 at 48 h was > 29.9 µM. Also, the “uninfected Calu-3 CC50 [μM]” value in the data set with Calu-3 cells [8] was > 29.867 ×÷ 1 (n=3) μM. For the same compound, the “Calu-3 uninfected cytotoxicity Sinf Average (%)” value in the data set with Calu-3 cells [8] (human, 48 h) was -100%.
As to `CC(C)(C)c1ccc(CSc2cnn(C(C)(C)C)c(=O)c2Cl)cc1` [Pyridaben], in [1] (setting [17]), the CC50 at 24 h was > 39.8 µM. In addition, the results for the Emax in the data set on SARS-CoV-2 [3] (setting [18]) and with Calu-3 cells [7] (setting [21]) were 93% and 47%, respectively. Moreover, the EC50 in the data set with SARS-CoV-2 [3] (setting [19]) was 0.205 µM; in the data set on SARS-CoV-2 [4] (geometric mean of replicates) it was > 9.59 µM; in the data set on HeLa-ACE2 cells [5] (setting [20]), > 9.59 µM; in the data set on Calu-3 cells [7] (setting [22]), 0.345 µM. For the same compound, the CC50 in “in vitro” (Calu-3 uninfected cytotoxicity CC50 GeoMean (µM), geometric mean of replicates) is > 8.99 µM. Besides, the “Calu-3 uninfected cytotoxicity Sinf Average (%)” value with Calu-3 cells [6] (Sinf average of the curves) is given as -94%.
In the case of `C=C(C)[C@]12C[C@@H](C)[C@@]34O[C@](Cc5ccccc5)(O[C@@H]1[C@@H]3C=C(COC(=O)Cc1ccc(O)c(OC)c1)C[C@]1(O)C(=O)C(C)=C[C@@H]41)O2` [Resiniferatoxin], the CC50 at 24 h in data set [1] (setting [10]) amounted to 7.17 µM. The “HeLa-ACE2 uninfected cytotoxicity Sinf Average” value in the data set on HeLa-ACE2 cells [2] is -100%. Besides, the Emax was 80% in the data set on SARS-CoV-2 [3] (setting [11]), 75% with SARS-CoV-2 [4], 100% in the data set on HeLa-ACE2 cells [5] and 75% in the data set with Calu-3 cells [7] (setting [15]). The EC50 in the data set on SARS-CoV-2 [3] (setting [12]) was 0.903 µM; in the data set on SARS-CoV-2 [4] (unrounded geometric mean), > 1.3 µM; in the data set with HeLa-ACE2 cells [5] (setting [14]) it was > 8.34 µM; in the data set with Calu-3 cells [7] (setting [16]) it was > 2.87 µM. The compound further came in with a CC50 in the data set “in vitro” (setting [13]) of 17.3 µM. For the same compound, the “Calu-3 uninfected cytotoxicity Sinf Average” value in the data set with Calu-3 cells [6] is listed as -100%.
